DBAASP
Values after ≈ are worked out from the molar mass of the structure shown. Values joined by “and” are separate entries in the source; they are usually repeats but may differ in a detail not shown here. Equal values may be shown once. Blank lines part the entries; values can stand above or below the compound they belong to.

What was measured:
Experiment in all cases: ≥ marks a high value that may be exact or a test limit, other limits are often not marked, values filed in µg/mL are converted to µM
[1] = test system: Enterobacter cloacae 4172
[2] = test system: Enterococcus faecalis ATCC 29212
Escherichia coli 1057 = test system: Escherichia coli 1057
Escherichia coli 214 = test system: Escherichia coli 214
[3] = test system: Escherichia coli BL21(DE3)
Escherichia coli C600 = test system: Escherichia coli C600
Escherichia coli ML-35p = test system: Escherichia coli ML-35p
[4] = test system: Micrococcus luteus VKM B-1314
[5] = test system: Staphylococcus aureus ATCC 29213
[6] = test system: Candida albicans NCYC 1467
[7] = test system: Enterococcus faecalis NCTC 12697
[8] = test system: Escherichia coli NCTC 10418
[9] = test system: Klebsiella pneumoniae ATCC 43816
[10] = test system: Pseudomonas aeruginosa ATCC 27853
[11] = test system: Staphylococcus aureus NCTC 10788
[12] = test system: Staphylococcus aureus NCTC 12493
[13] = test system: Bacillus subtilis CCT 2471
[14] = test system: Enterobacter cloacae ATCC 23355
[15] = test system: Escherichia coli ATCC 25922
[16] = test system: Escherichia coli CCT 1371
[17] = test system: Pseudomonas aeruginosa ATCC 15442
[18] = test system: Staphylococcus aureus ATCC 25923
[19] = test system: Staphylococcus aureus ATCC 6538
[20] = test system: Staphylococcus epidermidis
[21] = test system: Staphylococcus saprophyticus
[22] = test system: Acinetobacter baumannii CR17
[23] = test system: Bacillus subtilis VKM B-501
[24] = test system: Staphylococcus aureus 209P
Escherichia coli D31 = test system: Escherichia coli D31
[25] = test system: Klebsiella pneumoniae ATCC 700603
[26] = test system: Pseudomonas aeruginosa ATCC 10145
[27] = test system: Staphylococcus aureus ATCC 27660
[28] = test system: Escherichia coli K12 MG1655
Escherichia coli UTI89 = test system: Escherichia coli UTI89
[29] = test system: Salmonella enterica subsp. enterica serovar Typhimurium ATCC 14028

SMILES: CC[C@H](C)[C@H](NC(=O)[C@@H]1CCCN1C(=O)CNC(=O)[C@@H](NC(=O)[C@H](Cc1ccccc1)NC(=O)[C@@H]1CCCN1C(=O)CNC(=O)[C@@H](NC(=O)[C@H](CCCCN)NC(=O)[C@H](Cc1cnc[nH]1)NC(=O)[C@H](Cc1c[nH]c2ccccc12)NC(=O)[C@H](CC(C)C)NC(=O)[C@H](CCCN=C(N)N)NC(=O)[C@H](CCCCN)NC(=O)[C@H](CC(C)C)NC(=O)[C@H](CCCCN)NC(=O)[C@H](CCCCN)NC(=O)[C@H](CCCN=C(N)N)NC(=O)[C@H](Cc1ccccc1)NC(=O)[C@H](CCCN=C(N)N)NC(=O)[C@H](CCCCN)NC(=O)[C@H](Cc1ccccc1)NC(=O)[C@H](CCCN=C(N)N)NC(=O)CN)C(C)C)C(C)C)C(=O)N[C@@H](CC(C)C)C(=O)N[C@@H](Cc1cnc[nH]1)C(=O)N[C@@H](Cc1ccc(O)cc1)C(=O)O [GRFKRFRKKLKRLWHKVGPFVGPILHY]
MIC [1]: 0.125 µM and 0.25 µM
MIC [2]: 4 µM and 8 µM
MIC (Escherichia coli 1057): 0.125 µM (≈ 0.421 µg/mL)
MIC (Escherichia coli 214): 0.06 µM (≈ 0.202 µg/mL)
MIC [3]: 0.06 µM (≈ 0.202 µg/mL)
MIC (Escherichia coli C600): 0.06 µM and 0.125 µM
MIC (Escherichia coli ML-35p): 0.06 µM (≈ 0.202 µg/mL)
MIC [4]: 0.25 µM and 0.5 µM
MIC [5]: 1 µM and 2 µM

SMILES: CC[C@H](C)[C@H](NC(=O)[C@H](C)NC(=O)[C@H](CCCCN)NC(=O)[C@@H]1CCCN1C(=O)[C@@H](NC(=O)[C@H](CC(C)C)NC(=O)[C@H](CO)NC(=O)[C@H](CC(C)C)NC(=O)[C@@H](N)Cc1ccccc1)[C@@H](C)CC)C(=O)N[C@@H](CO)C(=O)N[C@@H](C)C(=O)N[C@H](C(=O)N[C@@H](CO)C(=O)N[C@@H](C)C(=O)N[C@@H](CC(C)C)C(=O)N[C@@H](C)C(=O)N[C@@H](CC(N)=O)C(=O)N[C@@H](Cc1cnc[nH]1)C(=O)N[C@@H](Cc1ccccc1)C(N)=O)C(C)C [FLSLIPKAISAVSALANHF]
MIC [6]: 16 µM (≈ 32 µg/mL)
MIC [7]: ≥ 32 µM
MIC [8]: ≥ 128 µM
MIC [9]: ≥ 256 µM
MIC [10]: > 512 µM
MIC [11]: 8 µM (≈ 16 µg/mL)
MIC [12]: 16 µM (≈ 32 µg/mL)

SMILES: CC[C@H](C)[C@H](NC(=O)[C@H](C)NC(=O)CNC(=O)[C@H](CC(C)C)NC(=O)[C@@H](NC(=O)[C@H](CCCCN)NC(=O)[C@H](CCCCN)NC(=O)[C@@H](NC(=O)[C@@H](NC(=O)CNC(=O)[C@H](CC(C)C)NC(=O)[C@H](CC(C)C)NC(=O)[C@H](CCCCN)NC(=O)[C@@H](N)CC(C)C)[C@@H](C)CC)C(C)C)C(C)C)C(N)=O [LKLLGIVKKVLGAI]
MIC [13]: ≥ 68 µM
MIC [14]: ≥ 34 µM
MIC [15]: 3 µM (≈ 4.39 µg/mL)
MIC [16]: ≥ 34 µM
MIC [17]: ≥ 34 µM
MIC [18]: 3 µM (≈ 4.39 µg/mL)
MIC [19]: 17 µM (≈ 24.9 µg/mL)
MIC [20]: ≥ 34 µM
MIC [21]: 3 µM (≈ 4.39 µg/mL)

SMILES: CC[C@H](C)[C@H](NC(=O)[C@H](CC(N)=O)NC(=O)[C@H](CC(C)C)NC(=O)[C@H](CCCCN)NC(=O)[C@H](C)NC(=O)[C@H](CC(C)C)NC(=O)[C@H](C)NC(=O)[C@H](C)NC(=O)[C@H](CC(C)C)NC(=O)[C@H](C)NC(=O)[C@H](CCCCN)NC(=O)[C@H](CCCCN)NC(=O)[C@@H](NC(=O)[C@@H](N)CC(C)C)[C@@H](C)CC)C(N)=O [LIKKALAALAKLNI]
MIC [22]: ≥ 173 µM

SMILES: CC[C@H](C)[C@H](NC(=O)[C@H](CCCCN)NC(=O)[C@H](CCC(N)=O)NC(=O)[C@H](Cc1c[nH]c2ccccc12)NC(=O)[C@@H](NC(=O)[C@H](CCCN=C(N)N)NC(=O)[C@@H](N)CCCCN)[C@@H](C)CC)C(=O)N[C@@H](CCCCN)C(=O)N[C@@H](CC(N)=O)C(=O)N[C@@H](Cc1ccccc1)C(=O)N[C@@H](Cc1ccccc1)C(=O)N[C@@H](CCC(N)=O)C(=O)N[C@@H](CCCCN)C(=O)N[C@@H](CC(C)C)C(=O)O [KRIWQKIKNFFQKL]
MIC [28]: 6.25 µM (≈ 11.7 µg/mL)
MIC (Escherichia coli UTI89): 6.25 µM (≈ 11.7 µg/mL)
MIC [29]: 25 µM (≈ 46.9 µg/mL)
MIC [20]: 25 µM (≈ 46.9 µg/mL)

Other lines, results leading:

MIC [23]: 0.7 µM (≈ 2.07 µg/mL)
MIC (Escherichia coli C600): 3 µM (≈ 8.88 µg/mL)
MIC [24]: 1.5 µM (≈ 4.44 µg/mL)
SMILES: CC[C@H](C)[C@H](NC(=O)[C@H](C)NC(=O)[C@H](CCCCN)NC(=O)[C@H](CCCN=C(N)N)NC(=O)[C@H](CC(C)C)NC(=O)[C@H](Cc1ccccc1)NC(=O)[C@H](CCCCN)NC(=O)[C@H](CCCCN)NC(=O)[C@@H](NC(=O)[C@H](CC(C)C)NC(=O)[C@H](CCCCN)NC(=O)CNC(=O)[C@H](Cc1ccccc1)NC(=O)[C@H](CC(C)C)NC(=O)CN)[C@@H](C)CC)C(=O)N[C@@H](CO)C(=O)N[C@@H](Cc1ccc(O)cc1)C(=O)N[C@@H](C)C(=O)N[C@H](C(=O)N[C@@H](CCCCN)C(=O)N[C@@H](CCCCN)C(=O)N[C@@H](C)C(=O)N[C@@H](CCCN=C(N)N)C(=O)NCC(=O)N[C@@H](CCCCN)C(=O)N[C@@H](Cc1cnc[nH]1)C(=O)O)C(C)C [GLFGKLIKKFLRKAISYAVKKARGKH]

MIC (Escherichia coli D31): 15 µM (≈ 33.2 µg/mL)
MIC [25]: > 15 µM
MIC [26]: 15 µM (≈ 33.2 µg/mL)
MIC [27]: 15 µM (≈ 33.2 µg/mL)
SMILES: CC(C)C[C@H](NC(=O)[C@H](CCCCN)NC(=O)[C@H](CCCCN)NC(=O)[C@H](C)NC(=O)[C@H](CCCCN)NC(=O)[C@H](CCCCN)NC(=O)[C@H](C)NC(=O)CNC(=O)[C@H](CCCCN)NC(=O)[C@H](C)NC(=O)[C@H](Cc1c[nH]c2ccccc12)NC(=O)[C@H](C)NC(=O)[C@H](CCCCN)NC(=O)[C@H](C)NC(=O)[C@H](C)NC(=O)[C@H](CCCCN)NC(=O)[C@@H](N)CCCCN)C(=O)N[C@@H](C)C(=O)N[C@@H](CCCCN)C(=O)NCC(=O)N[C@@H](C)C(=O)NCC(=O)O [KKAAKAWAKGAKKAKKLAKGAG]
